Our source for the TGI values is PubChem BioAssay (NCI).

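Protocol summary: plate cells (96-well), add compound at 5 concentrations, incubate 48 h, interpolate endpoints linearly. TGI: concentration producing complete growth inhibition.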

Test systems include CAKI-1 renal; HCC-2998 colon; MDA-MB-231 breast; MDA-N; OVCAR-3 ovarian; OVCAR-5 ovarian; RPMI-8226 leukemia; SF-295 CNS; SK-MEL-2 melanoma; UACC-62 melanoma.
Assay in all cases: NCI anticancer screen, dose series, 48 h

Consider `CC1CC/C(=C\c2ccc(Cl)cc2)c2nc(N)c(C#N)c(-c3ccc(Cl)cc3)c21` (stereo not given), for which the TGI in the assay with CAKI-1 renal is 45.5 µM; with HCC-2998 colon it was more than 100 µM; in the assay on MDA-MB-231 breast, more than 100 µM; in the assay on MDA-N it was more than 100 µM; in the assay on OVCAR-3 ovarian it was more than 100 µM; in the assay on OVCAR-5 ovarian, more than 100 µM. In addition, the TGI in the assay on RPMI-8226 leukemia, with SF-295 CNS, in the assay on SK-MEL-2 melanoma and with UACC-62 melanoma was more than 100 µM in each case.

`COC(=O)[C@@H]1CN(C(=O)c2ccccc2)C(=O)N1C(=O)OCc1ccccc1`: the TGI in the assay on CAKI-1 renal, in the assay with HCC-2998 colon, with MDA-MB-231 breast, with MDA-N, in the assay with OVCAR-3 ovarian and in the assay on OVCAR-5 ovarian was more than 100 µM throughout. Moreover, the TGI with RPMI-8226 leukemia, in the assay with SF-295 CNS, in the assay with SK-MEL-2 melanoma and in the assay with UACC-62 melanoma was more than 100 µM in each case.

On to `Cc1ccc(S(=O)(=O)N(CC(O)COc2ccccc2)c2ccc(F)cc2F)cc1` (stereo not given), for which the TGI amounted to 29.9 µM with CAKI-1 renal; 29.7 µM in the assay with HCC-2998 colon; 39 µM with MDA-MB-231 breast; 29.8 µM in the assay with MDA-N; 34.4 µM in the assay on OVCAR-3 ovarian; 34.1 µM in the assay on OVCAR-5 ovarian. Besides, the TGI worked out at 34.5 µM in the assay with RPMI-8226 leukemia, 34.4 µM in the assay with SF-295 CNS, 30.4 µM in the assay on SK-MEL-2 melanoma and 31.9 µM in the assay on UACC-62 melanoma.

On to `CN(C)C(=S)Oc1ccc2ccc(=O)oc2c1`, for which the TGI in the assay with CAKI-1 renal, in the assay on HCC-2998 colon, with MDA-MB-231 breast, with MDA-N, with OVCAR-3 ovarian and with OVCAR-5 ovarian was more than 100 µM throughout. Further, the TGI in the assay on RPMI-8226 leukemia, with SF-295 CNS, with SK-MEL-2 melanoma and in the assay on UACC-62 melanoma was more than 100 µM throughout.

Turning to `CCOC(=O)c1cnccc1CC1(C#N)c2ccccc2C=CN1C(=O)c1ccccc1` (stereo not given), the TGI with CAKI-1 renal is more than 100 µM; with HCC-2998 colon, more than 100 µM; in the assay with MDA-MB-231 breast, more than 100 µM; in the assay on MDA-N, 45.8 µM; in the assay on OVCAR-3 ovarian, more than 100 µM; in the assay with OVCAR-5 ovarian, more than 100 µM. Moreover, the TGI is 27.6 µM in the assay with RPMI-8226 leukemia, more than 100 µM in the assay on SF-295 CNS, 41.4 µM in the assay on SK-MEL-2 melanoma and 80.9 µM in the assay on UACC-62 melanoma.

For `N#Cc1nc(C#N)n(C(=O)c2ccccc2)c1NC(=O)c1ccccc1`, the TGI in the assay with CAKI-1 renal, in the assay on HCC-2998 colon, in the assay with MDA-MB-231 breast, in the assay with MDA-N, in the assay on OVCAR-3 ovarian and in the assay on OVCAR-5 ovarian was more than 100 µM throughout. Also, the TGI in the assay with RPMI-8226 leukemia, with SF-295 CNS, in the assay on SK-MEL-2 melanoma and in the assay with UACC-62 melanoma was more than 100 µM in each case.

For the compound `N/C(=N\Nc1ccc(S(N)(=O)=O)cc1)c1cnccn1`, the TGI in the assay on CAKI-1 renal, in the assay on HCC-2998 colon, in the assay with MDA-MB-231 breast, in the assay with MDA-N, with OVCAR-3 ovarian and with OVCAR-5 ovarian was more than 100 µM each time. In addition, the TGI in the assay on RPMI-8226 leukemia, with SF-295 CNS, with SK-MEL-2 melanoma and in the assay on UACC-62 melanoma was more than 100 µM throughout.

For the compound `O=C(/C=C/c1cccs1)c1ccccc1Cl`, the TGI in the assay on CAKI-1 renal was 23 µM; in the assay with HCC-2998 colon, 32.2 µM; in the assay with MDA-MB-231 breast, more than 54.4 µM; with MDA-N, 33.9 µM; in the assay on OVCAR-3 ovarian, 28.2 µM; with OVCAR-5 ovarian, 28.9 µM. The TGI in the assay on RPMI-8226 leukemia is 61.9 µM; in the assay with SF-295 CNS it was 36.2 µM; with SK-MEL-2 melanoma it was 43.6 µM; with UACC-62 melanoma, 27.5 µM.

Regarding `CC(C)C1(O)C(=O)N(c2c(F)c(F)c(F)c(F)c2F)C(=S)N1CCSc1ccccc1` (stereo not given), the TGI with CAKI-1 renal was 24.7 µM; in the assay with HCC-2998 colon, 34.8 µM; with MDA-MB-231 breast it was 26.4 µM; in the assay on MDA-N, 31.3 µM; in the assay on OVCAR-3 ovarian, 30.1 µM; in the assay on OVCAR-5 ovarian, 33 µM. The TGI in the assay on RPMI-8226 leukemia amounted to 28.7 µM; with SF-295 CNS, 32.1 µM; in the assay on SK-MEL-2 melanoma it was 32.5 µM; in the assay with UACC-62 melanoma, 30.6 µM.

Take `COC(=O)c1c(C)nc(C)c(NO)c1-c1ccccc1C(F)(F)F`: the TGI with CAKI-1 renal was 43.3 µM; with HCC-2998 colon, more than 100 µM; in the assay with MDA-MB-231 breast it was 27.9 µM; in the assay on MDA-N it was 30.5 µM; with OVCAR-3 ovarian it was 30.3 µM; in the assay on OVCAR-5 ovarian, more than 100 µM. The TGI in the assay with RPMI-8226 leukemia was 70.6 µM; in the assay with SF-295 CNS, more than 100 µM; in the assay on SK-MEL-2 melanoma, more than 100 µM; with UACC-62 melanoma it was more than 100 µM.

For the compound `Cc1cc2c(c(=O)n1C)SCC2`, the TGI in the assay with CAKI-1 renal, in the assay on HCC-2998 colon, in the assay on MDA-MB-231 breast, in the assay on MDA-N, in the assay with OVCAR-3 ovarian and in the assay with OVCAR-5 ovarian was more than 100 µM in each case. The TGI in the assay on RPMI-8226 leukemia, with SF-295 CNS, in the assay with SK-MEL-2 melanoma and with UACC-62 melanoma was more than 100 µM in each case.

In the case of `Cc1ccc(-c2n[nH]c(=O)n2/N=C\c2ccccc2)cc1`, the TGI in the assay on CAKI-1 renal is more than 100 µM; in the assay with HCC-2998 colon, more than 100 µM; in the assay with MDA-MB-231 breast it was more than 100 µM; with MDA-N, more than 93.9 µM; in the assay on OVCAR-3 ovarian, more than 100 µM; in the assay on OVCAR-5 ovarian, more than 100 µM. For the same compound, the TGI in the assay on RPMI-8226 leukemia is more than 100 µM; in the assay with SF-295 CNS, 69 µM; in the assay on SK-MEL-2 melanoma, 99.8 µM; with UACC-62 melanoma it was more than 100 µM.

Regarding `COc1ccc(-c2cc(C(O)C3CCCCN3)c3ccccc3n2)cc1` (stereo not given), the TGI is 18.4 µM with CAKI-1 renal; 3.7 µM in the assay on HCC-2998 colon; 9.83 µM with MDA-MB-231 breast; 16.7 µM in the assay with MDA-N; 27.8 µM in the assay on OVCAR-3 ovarian; 24.8 µM in the assay on OVCAR-5 ovarian. Moreover, the TGI in the assay with RPMI-8226 leukemia amounted to 5.82 µM; in the assay with SF-295 CNS, 28.4 µM; in the assay with SK-MEL-2 melanoma, 18.5 µM; in the assay on UACC-62 melanoma it was 12 µM.

For the compound `CCCNc1ncnc2[nH]ncc12`, the TGI in the assay with CAKI-1 renal, in the assay on HCC-2998 colon, in the assay with MDA-MB-231 breast, in the assay on MDA-N, in the assay on OVCAR-3 ovarian and in the assay with OVCAR-5 ovarian was more than 100 µM each time. In addition, the TGI with RPMI-8226 leukemia, with SF-295 CNS, in the assay with SK-MEL-2 melanoma and in the assay on UACC-62 melanoma was more than 100 µM in each case.

On to `Cc1ccc(/C(O)=C/c2nc3ccc([N+](=O)[O-])cc3nc2/C=C(\O)c2ccc(C)cc2)cc1`, for which the TGI in the assay with CAKI-1 renal, in the assay on HCC-2998 colon, in the assay with MDA-MB-231 breast, with MDA-N, in the assay on OVCAR-3 ovarian and with OVCAR-5 ovarian was more than 100 µM throughout. Besides, the TGI with RPMI-8226 leukemia was more than 100 µM; in the assay with SF-295 CNS, more than 100 µM; with SK-MEL-2 melanoma it was more than 100 µM; with UACC-62 melanoma, more than 69.3 µM.

`Cn1c2ccccc2n2c3ncccc3c(=S)c(C#N)c12`: the TGI in the assay with CAKI-1 renal, with HCC-2998 colon, with MDA-MB-231 breast, with MDA-N, with OVCAR-3 ovarian and with OVCAR-5 ovarian was more than 100 µM each time. Besides, the TGI in the assay on RPMI-8226 leukemia, with SF-295 CNS, with SK-MEL-2 melanoma and with UACC-62 melanoma was more than 100 µM throughout.

Regarding `CCOC(=O)C1CCCCN1CCc1c[nH]c2ccccc12` (stereo not given), the TGI in the assay on CAKI-1 renal, in the assay with HCC-2998 colon, with MDA-MB-231 breast, with MDA-N, in the assay with OVCAR-3 ovarian and with OVCAR-5 ovarian was more than 100 µM throughout. The TGI in the assay with RPMI-8226 leukemia, with SF-295 CNS, with SK-MEL-2 melanoma and in the assay on UACC-62 melanoma was more than 100 µM throughout.
